The values below come from patent US4595688A, “Hexahydropyrrolo[2,1-a]isoquinoline derivatives and antidepressant use thereof” (priority 1984, dated 1986).

Read-outs that look alike come from different tables or passages of the source.

A word on the ED50: it is the midpoint of the dose-response relation.

The assay deals with depressant effects of tetrabenazine (TBZ). As to the kind of experiment: tetrabenazine (TBZ) antagonism assay in mice: exploratory activity (EA) and reversal of ptosis (Pt). In kind it is in vivo. The settings on record: for ED50: Mus musculus, ip; for percent inhibition at a certain dose, EA (exploratory activity): TBZ 32 mg/kg i.p. On the procedure: The utility of the novel compounds of this patent is based on a standard test for antidepressant agents involving antagonism of the depressant effects of tetrabenazine (TBZ). This is the "classical" tetrabenazine antagonism assay described in U.S. Pat. No. 3,787,577. In this test, mice are injected with a test compound 30 minutes prior to the injection of 32 mg/kg i.p. of TBZ, a drug which decreases normal exploratory activity and induces ptosis. After 30 minutes, the mice are tested for two parameters: the presence of normal exploratory activity (EA) and reversal of ptosis (Pt). A control group of mice is given only 32 mg/kg i.p. of TBZ. The biological activity of the novel compounds of this invention may be understood by some representative, nonlimiting examples, presented in Tables I and II.
Tables I lists the compounds tested by a compound number, structural formula, HX or acid addition salt form in which the compound was tested, test data, and internal code number (McN No.). Table II names the various Table I compounds.
*ED50 given in mg/kg for each parameter (except for percent
inhibition at a certain dose in mg/kg, given for four examples: XLIV, XLV

The mark [1] stands for this setting: mice, i.p., compound 30 minutes prior to 32 mg/kg i.p. TBZ, normal exploratory activity, read-out: TBZ ED50, EA (exploratory activity).
Setting [2] is: mice, i.p., compound 30 minutes prior to 32 mg/kg i.p. TBZ, reversal of ptosis, read-out: TBZ ED50, Pt (reversal of ptosis).
Where [3] appears, read: read-out: TBZ ED50, EA (exploratory activity).
[4] abbreviates: read-out: TBZ ED50, Pt (reversal of ptosis).

With `COc1cccc([C@@H]2CN3CCC[C@@H]3c3ccccc32)c1` (relative stereo) [Compound XL, 1,2,3,5,6,10bβ-Hexahydro-6α-(3-methoxyphenyl)pyrrolo[2,1-a]isoquinoline], the 50% effective dose (ED50) reads like this: under setting [1], roughly 0.17 mg/kg; under setting [2], roughly 0.07 mg/kg.
Take `Oc1cccc([C@@H]2CN3CCC[C@@H]3c3ccccc32)c1` (relative stereo) [Compound XLI, 3-(1,2,3,5,6,10bβ-Hexahydropyrrolo[2,1-a]isoquinolin-6α-yl)phenol]: the ED50 was greater than 10 mg/kg under setting [1] and 0.11 mg/kg under setting [2].
For `Clc1ccc([C@@H]2CN3CCC[C@H]3c3cc(Cl)ccc32)cc1` (relative stereo) [Compound XLII, [6α,10bα]-9-Chloro-6-(4-chlorophenyl)-1,2,3,5,6,10b-hexahydropyrrolo[2,1-a]isoquinoline] the same measures were 100 mg/kg and 37 mg/kg.
For `C[C@]12CCCN1C[C@@H](c1ccccc1)c1ccccc12` (relative stereo) [IVb, [6α,10bβ]-1,2,3,5,6,10b-Hexahydro-10b-methyl-6-phenylpyrrolo[2,1-a]isoquinoline] the same measures were 9.2 mg/kg and 3.8 mg/kg.
For `C[C@]12CCCN1C[C@@H](c1ccc(F)cc1)c1ccc(F)cc12` (relative stereo) [L, 9-Fluoro-6α-(4-fluorophenyl)-1,2,3,5,6,10b-hexahydro-10bβ-methylpyrrolo[2,1-a]isoquinoline] the same measures were 6.1 mg/kg and 5.6 mg/kg.
Consider `Clc1ccccc1[C@@H]1CN2CCC[C@@H]2c2ccccc21` (relative stereo) [LI, [6α,10bβ]-6-(2-chlorophenyl)-1,2,3,5,6,10b-hexahydropyrrolo[2,1-a]isoquinoline], for which the median effective dose (ED50) under setting [2] was found to be 0.2 mg/kg. In addition, the “percent inhibition at a certain dose, EA (exploratory activity)” value (“percent inhibition at a certain dose, EA” below) (mice, i.p., @ 60 mg/kg) stood at 37%.
In the case of `c1ccc([C@H]2Cc3ccccc3[C@@H]3CCCN23)cc1` (relative stereo) [LII, 1,2,3,5,6,10bα-Hexahydro-5α-phenylpyrrolo[2,1-a]isoquinoline], the median effective dose (ED50) is roughly 30 mg/kg under setting [3] and 32 mg/kg under setting [4].
In the case of `Oc1cccc([C@@H]2CN3CCC[C@H]3c3ccccc32)c1` (relative stereo) [XLIV, 3-(1,2,3,5,6,10bα-Hexahydropyrrolo[2,1-a]isoquinolin-6α-yl)phenol], under setting [2], the median effective dose (ED50) was determined as 3.1 mg/kg. For the same molecule, the “percent inhibition at a certain dose, EA” value (mice, i.p., @ 30 mg/kg) is reported as 37%.
With `FC(F)(F)c1cccc([C@@H]2CN3CCC[C@@H]3c3ccccc32)c1` (relative stereo) [XLIX, 1,2,3,5,6,10bβ-Hexahydro-6α-[(3-trifluoromethyl)phenyl]-pyrrolo[2,1-a]isoquinoline], the ED50 runs as follows: under setting [1], 1.2 mg/kg; under setting [2], 0.43 mg/kg.
With `COc1ccc([C@@H]2CN3CCC[C@@H]3c3ccccc32)cc1OC` (relative stereo) [XLV, 1,2,3,5,6,10bβ-Hexahydro-6α-(3,4-dimethoxyphenyl)pyrrolo[2,1-a]isoquinoline], under setting [2], the ED50 was determined as 0.14 mg/kg. Where the note is “mice, i.p., @ 30 mg/kg”, the “percent inhibition at a certain dose, EA” value is reported as 33%.
Regarding `C[C@@]1(c2ccccc2)CN2CCC[C@H]2c2ccccc21` (relative stereo) [XLVI, 1,2,3,5,6,10bα-Hexahydro-6-methyl-6α-phenylpyrrolo[2,1-a]isoquinoline], the ED50 is, setting by setting: under setting [1], 22.5 mg/kg; under setting [2], 16 mg/kg.
For the molecule `COc1cccc2c1[C@H](c1ccccc1)CN1CCC[C@H]21` (relative stereo) [XLVII, 1,2,3,5,6,10bβ-Hexahydro-7-methoxy-6α-phenylpyrrolo[2,1-a]isoquinoline], the 50% effective dose (ED50) runs as follows: under setting [3], 2.8 mg/kg; under setting [4], roughly 6.5 mg/kg.
Take `Nc1ccc([C@@H]2CN3CCC[C@H]3c3ccccc32)cc1` (relative stereo) [XLVIII, 4-(1,2,3,5,6,10bα-Hexahydropyrrolo[2,1-a]isoquinoline-6α-yl)benzenamine]: the ED50 runs as follows: under setting [1], 1.4 mg/kg; under setting [2], 0.41 mg/kg.
Consider `Clc1ccc([C@@H]2CN3CCC[C@H]3c3ccccc32)cc1Cl` (relative stereo) [XXIV, 6α-(3,4-Dichlorophenyl)-1,2,3,5,6,10bα-hexahydropyrrolo[2,1-a]isoquinoline], for which the ED50 reads like this: under setting [3], roughly 40 mg/kg; under setting [4], 8 mg/kg.
The like results for `Clc1ccc([C@@H]2CN3CCC[C@@H]3c3ccccc32)cc1` (relative stereo) [XXIX, [6α,10bβ]-6-(4-Chlorophenyl)-1,2,3,5,6,10b-hexahydropyrrolo[2,1-a]isoquinoline] were, in that order, 0.27 mg/kg and 0.13 mg/kg.
Consider `C[C@@]1(c2ccccc2)CN2CCC[C@@H]2c2ccccc21` (relative stereo) [XXV, 1,2,3,5,6,10bβ-Hexahydro-6-methyl-6α-phenylpyrrolo[2,1-a]isoquinoline], for which the ED50 reads like this: under setting [1], 27 mg/kg; under setting [2], 0.7 mg/kg.
Turning to `Oc1cc2c(cc1O)[C@H]1CCCN1C[C@H]2c1ccccc1` (relative stereo) [XXVI, [6α,10bβ]-1,2,3,5,6,10b-Hexahydro-8,9-dihydroxy-6-phenylpyrrolo[2,1-a]isoquinoline], the 50% effective dose (ED50) under setting [1] stood at 0.87 mg/kg and the ED50 under setting [2] is 0.33 mg/kg.
For `COc1cc2c(cc1OC)[C@H]1CCCN1C[C@H]2c1ccccc1` (relative stereo) [XXVII, [6α,10bβ]-1,2,3,5,6,10b-Hexahydro-8,9-dimethoxy-6-phenylpyrrolo[2,1-a]isoquinoline] the same measures were 17 mg/kg and 7.2 mg/kg.
With `c1ccc2c(c1)[C@H](C1CCCCC1)CN1CCC[C@H]21` (relative stereo) [XXVIII, [6α,10β]-6-Cyclohexyl-1,2,3,5,6,10b-hexahydropyrrolo[2,1-a]isoquinoline], the ED50 turned out to be 6.4 mg/kg under setting [1] and 1.9 mg/kg under setting [2].
Turning to `Clc1ccc([C@@H]2CN3CCC[C@H]3c3ccccc32)cc1` (relative stereo) [XXX, 6α-(4-Chlorophenyl)-1,2,3,5,6,10bα-hexahydropyrrolo[2,1-a]isoquinoline], the ED50 under setting [3] worked out at 8.1 mg/kg and the 50% effective dose (ED50) under setting [4] amounted to 5.4 mg/kg.
Regarding `COc1ccc([C@@H]2CN3CCC[C@H]3c3ccccc32)cc1` (relative stereo) [XXXI, 1,2,3,5,6,10bα-Hexahydro-6α-(4-methoxyphenyl)pyrrolo[2,1-a]isoquinoline], the ED50 under setting [1] is roughly 60 mg/kg and the ED50 under setting [2] came out at 3 mg/kg.
The like results for `Clc1ccc([C@@H]2CN3CCC[C@@H]3c3cc(Cl)ccc32)cc1` (relative stereo) [XXXII, [6α,10bβ]-9-Chloro-6-(4-chlorophenyl)-1,2,3,5,6,10b-hexahydropyrrolo[2,1-a]isoquinoline] were, in that order, 37 mg/kg and 4 mg/kg.
Take `COc1ccc([C@@H]2CN3CCC[C@@H]3c3ccccc32)cc1` (relative stereo) [XXXIII, 1,2,3,5,6,10bβ-Hexahydro-6α-(4-methoxyphenyl)pyrrolo[2,1-a]isoquinoline]: the ED50 by setting is: under setting [1], 7 mg/kg; under setting [2], 0.19 mg/kg.
Regarding `COc1ccc2c(c1)[C@@H]1CCCN1C[C@H]2c1ccccc1` (relative stereo) [XXXIX, 1,2,3,5,6,10bα-Hexahydro-9-methoxy-6α-phenylpyrrolo[2,1-a]isoquionline], the ED50 is roughly 40 mg/kg under setting [1] and 8 mg/kg under setting [2].
For the molecule `Oc1ccc([C@@H]2CN3CCC[C@@H]3c3ccccc32)cc1O` (relative stereo) [XXXV, 4-(1,2,3,5,6,10bβ-Hexahydropyrrolo[2,1-a]isoguinolin-6α-yl)benzene-1,2-diol], the median effective dose (ED50) was 1.4 mg/kg under setting [1] and 0.13 mg/kg under setting [2].
